# Measured values taken from patent publication US20260022142A1, “MACROCYCLIC IMMUNOMODULATORS” (Bristol-Myers Squibb Company, priority 2022, published 2026).
# Bridge positions count the residues as written; N and C are the ends. Square brackets hold non-standard residues; d marks the D form. Peptide text beside a SMILES is read from it. * marks the point of attachment. ξ: configuration not given here. Phe(3-CF3) = N[C@@H](Cc1cccc(C(F)(F)F)c1)C(=O)O; Ala(morpholin-4-yl) = N[C@@H](CN1CCOCC1)C(=O)O; Phe(4-COOH) = N[C@@H](Cc1ccc(C(=O)O)cc1)C(=O)O; Bip = N[C@@H](Cc1ccc(-c2ccccc2)cc1)C(=O)O; NH(CH2)14COOH = O=C(O)CCCCCCCCCCCCCCN*; NH(CH2)12COOH = O=C(O)CCCCCCCCCCCCN*; Val(3-OH) = CC(C)(O)[C@H](N)C(=O)O; Cha = N[C@@H](CC1CCCCC1)C(=O)O; Thr(3ξ) = CC(O)[C@H](N)C(=O)O; dDab = NCC[C@@H](N)C(=O)O; Carboxymethyl = O=C(O)C*; Nle = CCCC[C@H](N)C(=O)O; Orn = NCCC[C@H](N)C(=O)O; Aun = NCCCCCCCCCCC(=O)O; Dab = NCC[C@H](N)C(=O)O; AEEA = NCCOCCOCC(=O)O
# Target: T1, PD-1/PD-L1 interaction (PE-labeled human PD-L1-Ig binding to Jurkat cell line over-expressing human PD-1) (Homo sapiens, UniProt Q15116)
# T1 construct: expressed in transfected cells; host or cells: Jurkat
# Experiment: Jurkat-PD-1 Cell Binding High-Content Screening Assay (CBA)
# Assay type: cell-based
# Details: Jurkat cell line over-expressing human PD-1; PE-labeled PD-L1-Ig 20 nM final; read-out: Jurkat hPD1-PDL1 IC50
# In short: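 Read-out is high-content imaging of cell-bound phycoerythrin-tagged PD-L1-Ig on fixed, Hoechst-counterstained Jurkat cells that over-express human PD-1. Compound exposure lasts 2 h at 37° C before the labeled ligand (20 nM final) is added for a further hour.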
# T1 sequence (Q15116 25-288): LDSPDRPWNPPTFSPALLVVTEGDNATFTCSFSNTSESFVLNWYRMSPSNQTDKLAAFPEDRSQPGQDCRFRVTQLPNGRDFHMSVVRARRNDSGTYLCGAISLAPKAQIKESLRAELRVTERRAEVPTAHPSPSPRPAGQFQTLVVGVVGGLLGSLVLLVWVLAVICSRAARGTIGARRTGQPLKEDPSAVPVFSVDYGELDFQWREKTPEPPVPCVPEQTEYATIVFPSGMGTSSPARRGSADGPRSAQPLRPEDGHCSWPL
row,Compound,IC50 [nM]
1,CC(C)C[C@H]1NC(=O)[C@H](CCCN)NC(=O)[C@H](Cc2ccc(OCC(=O)O)cc2)NC(=O)[C@H](Cc2ccc(-c3ccccc3)cc2)NC(=O)[C@H](Cc2ccc(OCC(=O)O)cc2)NC(=O)[C@H](Cc2cccc(C(F)(F)F)c2)NC(=O)[C@H](CC(=O)O)NC(=O)[C@H](Cc2ccc(OCC(=O)O)cc2)NC(=O)[C@H](CCN)NC(=O)CSC[C@@H](C(=O)N[C@@H](CCN)C(=O)NCCCCCCCCCCC(=O)O)NC(=O)[C@H](C(C)O)NC(=O)[C@H](C(C)C)NC(=O)[C@H](CC2CCCCC2)NC(=O)[C@H](CCN)NC1=O (stereo partly drawn) [Compound 3820] ({CH2CO}-[Dab]Y(Carboxymethyl)D[Phe(3-CF3)]Y(Carboxymethyl)[Bip]Y(Carboxymethyl)[Orn][dL][Dab][Cha]V[Thr(3ξ)]C[Dab][Aun]-OH; thioether N-14),6.8
2,CC(C)C[C@H]1NC(=O)[C@H](Cc2cnc[nH]2)NC(=O)[C@H](Cc2ccc(OCC(=O)O)cc2)NC(=O)[C@H](Cc2ccc(-c3ccccc3)cc2)NC(=O)[C@H](Cc2ccc(C(=O)O)cc2)NC(=O)[C@H](Cc2cccc(C(F)(F)F)c2)NC(=O)[C@H](CC(=O)O)NC(=O)[C@H](Cc2ccc(OCC(=O)O)cc2)NC(=O)[C@H](C(C)O)NC(=O)CSC[C@@H](C(=O)N[C@@H](CCN)C(=O)NCCCCCCCCCCC(=O)O)NC(=O)[C@H](C(C)O)NC(=O)[C@H](C(C)C)NC(=O)[C@H](CC2CCCCC2)NC(=O)[C@H](CCN)NC1=O (stereo partly drawn) [Compound 3821] ({CH2CO}-[Thr(3ξ)]Y(Carboxymethyl)D[Phe(3-CF3)][Phe(4-COOH)][Bip]Y(Carboxymethyl)H[dL][Dab][Cha]V[Thr(3ξ)]C[Dab][Aun]-OH; thioether N-14),4
3,CCCC[C@@H]1NC(=O)[C@H](C(C)C)NC(=O)[C@H](CC2CCCCC2)NC(=O)[C@H](CCN)NC(=O)[C@@H](CC(C)C)NC(=O)[C@H](CCCN)NC(=O)[C@H](Cc2ccc(OCC(=O)O)cc2)NC(=O)[C@H](Cc2ccc(-c3ccccc3)cc2)NC(=O)[C@H](Cc2ccc(OCC(=O)O)cc2)NC(=O)[C@H](Cc2cccc(C(F)(F)F)c2)NC(=O)[C@H](CC(=O)O)NC(=O)[C@H](Cc2ccc(C(=O)O)cc2)NC(=O)[C@H](CCN)NC(=O)CSC[C@@H](C(=O)N[C@@H](CCN)C(=O)NCCCCCCCCCCC(=O)O)NC1=O [Compound 3825] ({CH2CO}-[Dab][Phe(4-COOH)]D[Phe(3-CF3)]Y(Carboxymethyl)[Bip]Y(Carboxymethyl)[Orn][dL][Dab][Cha]V[Nle]C[Dab][Aun]-OH; thioether N-14),19.7
4,CC(C)C[C@H]1NC(=O)[C@H](CCCN)NC(=O)[C@H](Cc2ccc(OCC(=O)O)cc2)NC(=O)[C@H](Cc2ccc(-c3ccccc3)cc2)NC(=O)[C@H](Cc2ccc(OCC(=O)O)cc2)NC(=O)[C@H](Cc2cccc(C(F)(F)F)c2)NC(=O)[C@H](CC(=O)O)NC(=O)[C@H](Cc2ccc(OCC(=O)O)cc2)NC(=O)[C@H](CC2CCCCC2)NC(=O)CSC[C@@H](C(=O)N[C@H](CCN)C(=O)NCCOCCOCC(=O)NCCCCCCCCCCCCC(=O)O)NC(=O)[C@H](CC(=O)O)NC(=O)[C@H](C(C)C)NC(=O)[C@H](CC2CCCCC2)NC(=O)[C@H](CCN)NC1=O [Compound 3826] ({CH2CO}-[Cha]Y(Carboxymethyl)D[Phe(3-CF3)]Y(Carboxymethyl)[Bip]Y(Carboxymethyl)[Orn][dL][Dab][Cha]VDC[dDab][AEEA]-{NH(CH2)12COOH}; thioether N-14),72.5
5,CCCC[C@@H]1NC(=O)CSC[C@@H](C(=O)N[C@H](CCN)C(=O)NCCOCCOCC(=O)NCCOCCOCC(=O)NCCCCCCCCCCCCC(=O)O)NC(=O)[C@H](CO)NC(=O)[C@H](C(C)(C)O)NC(=O)[C@H](CC2CCCCC2)NC(=O)[C@H](CCN)NC(=O)[C@@H](CC(C)C)NC(=O)[C@H](CCCN)NC(=O)[C@H](Cc2ccc(C(=O)O)cc2)NC(=O)[C@H](Cc2ccc(-c3ccccc3)cc2)NC(=O)[C@H](Cc2ccc(C(=O)O)cc2)NC(=O)[C@H](Cc2cccc(C(F)(F)F)c2)NC(=O)[C@H](CC(=O)O)NC(=O)[C@H](Cc2ccc(OCC(=O)O)cc2)NC1=O [Compound 3827] ({CH2CO}-[Nle]Y(Carboxymethyl)D[Phe(3-CF3)][Phe(4-COOH)][Bip][Phe(4-COOH)][Orn][dL][Dab][Cha][Val(3-OH)]SC[dDab][AEEA][AEEA]-{NH(CH2)12COOH}; thioether N-14),141
6,CC(C)C[C@H]1NC(=O)[C@H](CCCN)NC(=O)[C@H](Cc2ccc(C(=O)O)cc2)NC(=O)[C@H](Cc2ccc(-c3ccccc3)cc2)NC(=O)[C@H](Cc2ccc(C(=O)O)cc2)NC(=O)[C@H](Cc2cccc(C(F)(F)F)c2)NC(=O)[C@H](CC(=O)O)NC(=O)[C@H](Cc2ccc(OCC(=O)O)cc2)NC(=O)[C@H](CN2CCOCC2)NC(=O)CSC[C@@H](C(=O)N[C@H](CCN)C(=O)NCCOCCOCC(=O)NCCOCCOCC(=O)NCCCCCCCCCCCCC(=O)O)NC(=O)[C@H](CO)NC(=O)[C@H](C(C)(C)O)NC(=O)[C@H](CC2CCCCC2)NC(=O)[C@H](CCN)NC1=O [Compound 3828] ({CH2CO}-[Ala(morpholin-4-yl)]Y(Carboxymethyl)D[Phe(3-CF3)][Phe(4-COOH)][Bip][Phe(4-COOH)][Orn][dL][Dab][Cha][Val(3-OH)]SC[dDab][AEEA][AEEA]-{NH(CH2)12COOH}; thioether N-14),216
7,CCCC[C@@H]1NC(=O)CSC[C@@H](C(=O)N[C@@H](CCN)C(=O)NCCOCCOCC(=O)NCCOCCOCC(=O)NCCCCCCCCCCCCC(=O)O)NC(=O)[C@H](CO)NC(=O)[C@H](C(C)(C)O)NC(=O)[C@H](CC2CCCCC2)NC(=O)[C@H](CCN)NC(=O)[C@@H](CC(C)C)NC(=O)[C@H](CCCN)NC(=O)[C@H](Cc2ccc(OCC(=O)O)cc2)NC(=O)[C@H](Cc2ccc(-c3ccccc3)cc2)NC(=O)[C@H](Cc2ccc(OCC(=O)O)cc2)NC(=O)[C@H](Cc2cccc(C(F)(F)F)c2)NC(=O)[C@H](CC(=O)O)NC(=O)[C@H](Cc2ccc(OCC(=O)O)cc2)NC1=O [Compound 3829] ({CH2CO}-[Nle]Y(Carboxymethyl)D[Phe(3-CF3)]Y(Carboxymethyl)[Bip]Y(Carboxymethyl)[Orn][dL][Dab][Cha][Val(3-OH)]SC[Dab][AEEA][AEEA]-{NH(CH2)12COOH}; thioether N-14),19.2
8,CC(C)C[C@H]1NC(=O)[C@H](CCCN)NC(=O)[C@H](Cc2ccc(C(=O)O)cc2)NC(=O)[C@H](Cc2ccc(-c3ccccc3)cc2)NC(=O)[C@H](Cc2ccc(C(=O)O)cc2)NC(=O)[C@H](Cc2cccc(C(F)(F)F)c2)NC(=O)[C@H](CC(=O)O)NC(=O)[C@H](Cc2ccc(OCC(=O)O)cc2)NC(=O)[C@H](CC2CCCCC2)NC(=O)CSC[C@@H](C(=O)N[C@@H](CCN)C(=O)NCCOCCOCC(=O)NCCOCCOCC(=O)NCCCCCCCCCCCCCCC(=O)O)NC(=O)[C@H](CO)NC(=O)[C@H](C(C)(C)O)NC(=O)[C@H](CC2CCCCC2)NC(=O)[C@H](CCN)NC1=O [Compound 3830] ({CH2CO}-[Cha]Y(Carboxymethyl)D[Phe(3-CF3)][Phe(4-COOH)][Bip][Phe(4-COOH)][Orn][dL][Dab][Cha][Val(3-OH)]SC[Dab][AEEA][AEEA]-{NH(CH2)14COOH}; thioether N-14),200
9,CC(C)C[C@H]1NC(=O)[C@H](CCCN)NC(=O)[C@H](Cc2ccc(C(=O)O)cc2)NC(=O)[C@H](Cc2ccc(-c3ccccc3)cc2)NC(=O)[C@H](Cc2ccc(C(=O)O)cc2)NC(=O)[C@H](Cc2cccc(C(F)(F)F)c2)NC(=O)[C@H](CC(=O)O)NC(=O)[C@H](Cc2ccc(OCC(=O)O)cc2)NC(=O)[C@H](CC2CCCCC2)NC(=O)CSC[C@@H](C(=O)N[C@H](CCN)C(=O)NCCOCCOCC(=O)NCCOCCOCC(=O)NCCCCCCCCCCCCC(=O)O)NC(=O)[C@H](CO)NC(=O)[C@H](C(C)(C)O)NC(=O)[C@H](CC2CCCCC2)NC(=O)[C@H](CCN)NC1=O [Compound 3831] ({CH2CO}-[Cha]Y(Carboxymethyl)D[Phe(3-CF3)][Phe(4-COOH)][Bip][Phe(4-COOH)][Orn][dL][Dab][Cha][Val(3-OH)]SC[dDab][AEEA][AEEA]-{NH(CH2)12COOH}; thioether N-14),22.5
10,CC(C)C[C@@H]1NC(=O)CSC[C@@H](C(=O)N[C@@H](CCN)C(=O)NCCCCCCCCCCCCC(=O)O)NC(=O)[C@H](CO)NC(=O)[C@H](C(C)(C)O)NC(=O)[C@H](CC2CCCCC2)NC(=O)[C@H](CCN)NC(=O)[C@@H](CC(C)C)NC(=O)[C@H](CCCN)NC(=O)[C@H](Cc2ccc(OCC(=O)O)cc2)NC(=O)[C@H](Cc2ccc(-c3ccccc3)cc2)NC(=O)[C@H](Cc2ccc(OCC(=O)O)cc2)NC(=O)[C@H](Cc2cccc(C(F)(F)F)c2)NC(=O)[C@H](CC(=O)O)NC(=O)[C@H](Cc2ccc(OCC(=O)O)cc2)NC1=O [Compound 3835] ({CH2CO}-LY(Carboxymethyl)D[Phe(3-CF3)]Y(Carboxymethyl)[Bip]Y(Carboxymethyl)[Orn][dL][Dab][Cha][Val(3-OH)]SC[Dab]-{NH(CH2)12COOH}; thioether N-14),28.3
11,CC(C)C[C@H]1NC(=O)[C@H](CCCN)NC(=O)[C@H](Cc2ccc(OCC(=O)O)cc2)NC(=O)[C@H](Cc2ccc(-c3ccccc3)cc2)NC(=O)[C@H](Cc2ccc(OCC(=O)O)cc2)NC(=O)[C@H](Cc2cccc(C(F)(F)F)c2)NC(=O)[C@H](CC(=O)O)NC(=O)[C@H](Cc2ccc(OCC(=O)O)cc2)NC(=O)[C@H](Cc2cnc[nH]2)NC(=O)CSC[C@@H](C(=O)N[C@@H](CCN)C(=O)NCCCCCCCCCCCCC(=O)O)NC(=O)[C@H](CO)NC(=O)[C@H](C(C)(C)O)NC(=O)[C@H](CC2CCCCC2)NC(=O)[C@H](CCN)NC1=O [Compound 3836] ({CH2CO}-HY(Carboxymethyl)D[Phe(3-CF3)]Y(Carboxymethyl)[Bip]Y(Carboxymethyl)[Orn][dL][Dab][Cha][Val(3-OH)]SC[Dab]-{NH(CH2)12COOH}; thioether N-14),45.6
